Test results: US6207656A, “Vitamin D analogues and their neuronal effects” (Cephalon, Inc., priority 1998, dated 2001)
pKd: −log10 of the molar value.

How the values were obtained:
[1] = Serum calcium in primates; format: in vivo, monkey; conditions: 10 and 30 μg/kg/day oral, 8 days
[2] = test system: NT-3 mRNA; test: Induction of NT-3 mRNA expression in rats; format: in vivo, Sprague Dawley rats; conditions: 0.3, 1.0 and 3.0 μg/kg oral, 8 days; hippocampus (FIG. 1)
Protocol: (§1) Young adult male Sprague Dawley rats (250-350 g) were administered Compound (A), Compound (E), or a vehicle (80% propylene glycol (human formulation grade; Spectrum Quality Products, Inc., Gardena, Calif., catalog #PR130-55003) and 20% phosphate buffer, pH 9.2) at doses ranging from 0.1 to 5.5 μg/kg daily by oral gavage for eight days. Five hours after the last dose, the animals were sacrificed by decapitation. Each brain was quickly removed and chilled in ice-cold saline. The brain was cut into 2 mm thick coronal sections. Portions of the hippocampus, encompassing the CA1 region, and the medial septum were removed by punching 2 mm^3 sections using a calibrated tissue punch. Punched sections were immediately frozen on dry ice and then stored at -70° C. RNA was prepared from dissected tissue pieces.
(§2) Punches of tissue were homogenized in […] RNAzolB™ (Bioteex Laboratories, Houston, Tex.) using a homogenizer (Tekmar, Germany) until fully homogenized and then 250 μl RNAzilB™ was added. Typically, punches from the corresponding regions of brains of 2 to 3 animals were combined together. RNA was prepared as recommended by the manufacturer (Biotecx Laboratories). […] Concentration of RNA was measured spectrophotometrically and the quality of RNA was visualized on a nondenaturing agarose gel. […]

[3] = test system: NRT-like mRNA; test: Induction of NRT-like mRNA expression in rats; format: in vivo, Sprague Dawley rats; conditions: 0.3, 1.0 and 3.0 μg/kg oral, 8 days; septum (FIG. 1)
Protocol: as §1, §2

[4] = test system: GDNF mRNA; test: Induction of GDNF mRNA expression in primates; format: in vivo, monkey
Protocol: Twelve monkeys, ranging in weight from 2.0 Kg to 4.7 Kg, were divided into three groups of 4 animals each: the vehicle group (i.e., control), group dosed with 10 μg/kg/day, and group dosed with 30 μg/kg/clay. The monkeys were dosed orally for 8 days with Compound (A) and were sacrificed 5 hours after the last dosing. Brain regions were dissected and quick frozen. The dissected septi were divided into 3 preparations and two of the three regions of septum were analyzed. Total RNA was prepared and reverse transcribed and gene expression was assessed using polymerase chain reaction by the following procedure.
Total RNA was prepared by homogenizing sections of tissue in 750 μl RNAzolB™ (Biotecx Laboratories, Houston, Tex.) using a homogenizer (Tekmar, Germany) until fully homogenized and then 250 μl RNAzilB™ was added. RNA was prepared as recommended by the manufacturer (Biotecx Laboratories). […] Concentration of RNA was measured spectrophotometrically and the quality of RNA was visualized on a nondenaturing agarose gel. […]
An average of 4 PCR assays (two assays for each gene for two cDNA sets) were used in determining the induction of mRNA expression. To assure that PCR assays were within the linear range of the reaction, the linear range for each gene and each cDNA preparation was determined using serial dilutions of cDNAs. […]

[5] = test system: GDNF mRNA; test: Induction of GDNF mRNA expression in rats; format: in vivo, Sprague Dawley rats; conditions: 0.3, 1.0 and 3.0 μg/kg oral, 8 days; septum and hippocampus (FIG. 1)
Protocol: as §1, §2

[6] = molecular target: T1, vitamin D receptor (Gallus gallus, UniProt O42392); test: Vitamin D receptor binding (displacement of 3H-1α,25(OH)2D3)
T1 sequence (O42392 1-451): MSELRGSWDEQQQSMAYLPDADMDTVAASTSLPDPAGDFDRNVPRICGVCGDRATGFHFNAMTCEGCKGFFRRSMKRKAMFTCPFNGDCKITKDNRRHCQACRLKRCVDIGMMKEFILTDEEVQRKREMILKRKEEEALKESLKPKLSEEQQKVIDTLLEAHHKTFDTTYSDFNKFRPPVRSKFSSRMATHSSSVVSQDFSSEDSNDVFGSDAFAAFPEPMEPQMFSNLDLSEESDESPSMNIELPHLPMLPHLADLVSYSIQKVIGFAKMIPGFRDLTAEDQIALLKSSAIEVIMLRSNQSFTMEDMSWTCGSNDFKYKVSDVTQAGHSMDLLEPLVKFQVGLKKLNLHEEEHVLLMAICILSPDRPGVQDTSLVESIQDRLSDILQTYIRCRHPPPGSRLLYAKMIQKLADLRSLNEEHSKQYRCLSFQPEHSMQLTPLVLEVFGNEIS
Description: Bound and free ^3 H-1α,25(OH2)D3 were then separated on dextran-coated charcoal, samples were centrifuged and the supernatants containing the receptor-bound ^3 H-1α,25(OH2)D3 were counted in a liquid scintillation counter.

[7] = Calcemic activity in rats, serum calcium after 7 days oral gavage; format: in vivo, LEW/MOL female rats; conditions: for Calcium in Serum: Table 2A (vehicle 2.46 ± 0.06), ± S.D.
Protocol: For determining calcemic activity, LEW/MOL female rats (130-170 g) were administered test compounds daily for 7 days by oral gavage. Control rats received the vehicle. Each group consisted of 3 rats. Blood was collected by cardiac puncture on day 7.

## C=C1/C(=C\C=C2/CCC[C@]3(C)[C@@H]([C@@H](C)[C@@H](C#CCC(O)(CC)CC)OCC)CC[C@@H]23)C[C@@H](O)C[C@@H]1O [Compound (A), 1(S),3(R)-dihydroxy-20(R)-(1-ethoxy-5-ethyl-5-hydroxy-2-heptyn-1-yl)-9,10-seco-pregna-5(Z),7(E),10(19)-triene]
[1]
  serum calcium levels: did not increase serum calcium levels and were not hypercalcemic doses
[2]
  production of NT-3 mRNA: facilitated the production of NRT-like mRNA, GDNF mRNA, NT-3 mRNA
[3]
  production of NRT-like mRNA: facilitated the production of NRT-like mRNA
[4]; 10 and 30 μg/kg/day oral, 8 days, primate septum (FIG. 14B)
  production of GDNF mRNA: facilitated the production of NGF mRNA and GDNF mRNA
[4]; 10 vs 30 μg/kg/day oral
  dosage of greatest GDNF mRNA production: greatest at a dosage of 10 μg/kg/day
[5]
  production of GDNF mRNA: facilitated the production of NRT-like mRNA, GDNF mRNA
[6]
  pKd: 9.70
[7]; 0.1 μg/kg/day p.o.
  Calcium in Serum: 2.52 ± 0.02 mmol/L
[7]; 1.0 μg/kg/day p.o.
  Calcium in Serum: 2.62 ± 0.02 mmol/L
[7]; 10 μg/kg/day p.o., Table 2A
  Calcium in Serum column: toxicity: toxic
[7]; rat, in vivo, po
  Calcemic Activity (%): 24%
[7]; summary statement
  calcemic classification: exemplary of low calcemic vitamin D3 analogues
